# Values of other authors as cited in patent US10280177B2 (ALFASIGMA S.P.A., priority 2006, dated 2019).
# Conditions: in vivo
smiles,measurement,value
"CO[C@H]1/C=C/O[C@@]2(C)Oc3c(C)c(O)c4c(O)c(c5c(nc6cc(C)ccn65)c4c3C2=O)NC(=O)/C(C)=C\C=C\[C@H](C)[C@H](O)[C@@H](C)[C@@H](O)[C@@H](C)[C@H](OC(C)=O)[C@@H]1C [polymorph ?, rifaximin]",reduction of bioavailability compared to the form δ,twenty
